Results as given in US4404138A, “3-[2-(Azabicyclo) ethyl]-1,2,3,4-tetrahydro-5H-[1]benzopyrano[3,4-c]pyridin-5-ones” (Warner-Lambert Company, priority 1982, dated 1983).
Counter-ions that a name gives are not always drawn.

System: Conscious guinea pigs exposed to an aerosol of methacholine
Experiment: Methacholine aerosol collapse time in conscious guinea pigs (anticholinergic test)
Assay type: in vivo
Conditions: 25 mg/kg intraperitoneally, 10 minutes methacholine aerosol; for (Minutes Protection): collapse time, Control 1.9 to 2.0; for (Minutes Protection), given in words: time not given
Experimental: Conscious guinea pigs, six at a time, are put into a sealed chamber and exposed for 10 minutes to an aerosol of methacholine.

Row | Compound | (Minutes Protection) [min] | (Minutes Protection), given in words
1 | O=c1oc2cc3c(cc2c2c1CN(CCN1CC4CCC(CC4)C1)CC2)OCO3 [R1+R2=OCH2O, R3=H, X=drawing 10, 3-[2-(3-Azabicyclo[3.2.2]non-3-yl)ethyl]-1,2,3,4-tetrahydro-5H-[1,3]benzodioxolo[5',6':5,6]pyrano[3,4-c]pyridin-5-one] | 2.3 | 
2 | Cc1cc2oc(=O)c3c(c2cc1Cl)CCN(CCN1CC2CCC(CC2)C1)C3 [R1=Cl, R2=Me, R3=H, X=drawing 10, 3-[2-(3-Azabicyclo[3.2.2]non-3-yl)ethyl]-9-chloro-1,2,3,4-tetrahydro-8-methyl-5H-[1]benzopyrano[3,4-c]pyridin-5-one] | 2.1 | 
3 | Cc1cc2oc(=O)c3c(c2cc1Cl)CCN(CCN1CC2CCCC(C2)C1)C3 [R1=Cl, R2=Me, R3=H, X=drawing 12] | 2.6 | 
4 | CCOc1cc2oc(=O)c3c(c2cc1OCC)CCN(CCN1CC2CCC(CC2)C1)C3 [R1=EtO, R2=EtO, R3=H, X=drawing 10, 3-[2-(3-Azabicyclo[3.2.2]non-3-yl)ethyl]-1,2,3,4-tetrahydro-8,9-diethoxy-5H-[1]benzopyrano[3,4-c]pyridin-5-one] | 6.3 | 
5 | O=c1oc2c(ccc3ccccc32)c2c1CN(CCN1CC3CCC(CC3)C1)CC2 [R1=H, R2+R3=CH CHCHCH, X=drawing 10, 2-[2-(3-Azabicyclo[3.2.2]non-3-yl)ethyl]-1,2,3,4-tetrahydro-12H-naphtho[2',1',:5,6]pyrano[3,4-c]pyridin-12-one dihydrochloride] | 2.7 | 
6 | CC(C)c1ccc2c3c(c(=O)oc2c1)CN(CCN1CC2CCC(CC2)C1)CC3.Cl.Cl [R1=H, R2=CHMe2, R3=H, X=drawing 10, 3-[2-(3-Azabicyclo[3.2.2]non-3-yl)ethyl]-1,2,3,4-tetrahydro-8-(1-methylethyl)-5H-[1]benzopyrano[3,4-c]pyridin-5-one dihydrochloride] | 6.2 | 
7 | CC(C)(C)c1ccc2c3c(c(=O)oc2c1)CN(CCN1CC2CCC(CC2)C1)CC3.Cl.Cl [R1=H, R2=CMe3, R3=H, X=drawing 10, 3-[2-(3-Azabicyclo[3.2.2]non-3-yl)ethyl]-8-(1,1-dimethylethyl)-1,2,3,4-tetrahydro-5H-[1]benzopyrano[3,4-c]pyridin-5-one, dihydrochloride] | 3.4 | 
8 | CCc1ccc2c3c(c(=O)oc2c1)CN(CCN1CC2CCC(CC2)C1)CC3.Cl.Cl [R1=H, R2=Et, R3=H, X=drawing 10, 3-(2-(3-Azabicyclo[3,2,2]non-3-yl)ethyl]-8-ethyl-1,2,3,4-tetrahydro-5H-benzopyrano[3,4-c]pyridin-5-one, dihydrochloride] | 6.8 | 
9 | O=c1oc2ccccc2c2c1CN(CCN1CC3CCC(CC3)C1)CC2 [R1=H, R2=H, R3=H, X=drawing 10, 3-[2-(3-Azabicyclo[3.2.2]non-3-yl)ethyl]-1,2,3,4-tetrahydro-5H-[1]benzopyrano[3,4-c]pyridin-5-one] | 5.2 | 
10 | O=c1oc2ccccc2c2c1CN(CCN1CC3CCCC(C3)C1)CC2 [R1=H, R2=H, R3=H, X=drawing 12, 3-[2-(3-Azabicyclo[3.3.1]non-3-yl)ethyl]-1,2,3,4-tetrahydro-5H-[1]benzopyrano[3,4-c]pyridin-5-one] | 3.3 | 
11 | Cc1ccc2c3c(c(=O)oc2c1)CN(CCN1CC2CCC(CC2)C1)CC3 [R1=H, R2=Me, R3=H, X=drawing 10, 3-[2-(3-Azabicyclo[3.2.2]non-3-yl)ethyl]-1,2,3,4-tetrahydro-8-methyl-5H-[1]benzopyrano[3,4-c]pyridin-5-one] | 5.0 | 
12 | Cc1ccc2c3c(c(=O)oc2c1)CN(CCN1CC2CCC1CC2)CC3 [R1=H, R2=Me, R3=H, X=drawing 11, 3-[2-(2-Azabicyclo[2.2.2]oct-2-yl)ethyl]-1,2,3,4-tetrahydro-8-methyl-5H-[1]benzopyrano[3,4-c]pyridin-5-one] | 2.3 | 
13 | Cc1ccc2c3c(c(=O)oc2c1)CN(CCN1CC2CCCC(C2)C1)CC3 [R1=H, R2=Me, R3=H, X=drawing 12, 3-[2-(3-Azabicyclo[3.3.1]non-3-yl)ethyl]-1,2,3,4-tetrahydro-8-methyl-5H-[1]benzopyrano[3,4-c]pyridin-5-one] | 3.1 | 
14 | COc1ccc2c3c(c(=O)oc2c1)CN(CCN1CC2CCC(CC2)C1)CC3.Cl.Cl [R1=H, R2=MeO, R3=H, X=drawing 10, 3-[2-(3-Azabicyclo[3.2.2]non-3-yl)ethyl]-1,2,3,4-tetrahydro-8-methoxy-5H-[1]benzopyrano[3,4-c]pyridin-5-one, dihydrochloride] | 6.0 | 
15 | COc1ccc2c3c(c(=O)oc2c1)CN(CCN1CC2CCC1CC2)CC3 [R1=H, R2=MeO, R3=H, X=drawing 11, 3-[2-(2-Azabicyclo[2.2.2]oct-2-yl)ethyl]-1,2,3,4-tetrahydro-8-methoxy-5H-[1]benzopyrano[3,4-c]pyridin-5-one] | 10.0 | 
16 | COc1ccc2c3c(c(=O)oc2c1)CN(CCN1CC2CCCC(C2)C1)CC3 [R1=H, R2=MeO, R3=H, X=drawing 12, 3-[2-(3-Azabicyclo[3.3.1]non-3-yl)ethyl]-1,2,3,4-tetrahydro-8-methoxy-5H-[1]benzopyrano[3,4-c]pyridin-5-one] | 7.3 | 
17 | COc1ccc2c3c(c(=O)oc2c1OC)CN(CCN1CC2CCC(CC2)C1)CC3.Cl.Cl [R1=H, R2=MeO, R3=MeO, X=drawing 10, 3-[2-(3-Azabicyclo[3.2.2]non-3-yl)ethyl]-1,2,3,4-tetrahydro-7,8-dimethoxy-5H-[1]benzopyrano[3,4-c]pyridin-5-one dihydrochloride] | 3.0 | 
18 | O=c1oc2cc(O)ccc2c2c1CN(CCN1CC3CCC(CC3)C1)CC2 [R1=H, R2=OH, R3=H, X=drawing 10] | 6.1 | 
19 | Cl.Cl.O=c1oc2cc(-c3ccccc3)ccc2c2c1CN(CCN1CC3CCC(CC3)C1)CC2 [R1=H, R2=Ph, R3=H, X=drawing 10, 3-[2-(3-Azabicyclo[3.2.2]non-3-yl)ethyl]-1,2,3,4-tetrahydro-8-phenyl-5H-[1]benzopyrano[3,4-c]pyridin-5-one, dihydrochloride] | 2.1 | 
20 | Cc1cc2oc(=O)c3c(c2cc1C)CCN(CCN1CC2CCC(CC2)C1)C3 [R1=Me, R2=Me, R3=H, X=drawing 10, 3-[2-(3-Azabicyclo[3.2.2]non-3-yl)ethyl]-1,2,3,4-tetrahydro-8,9-dimethyl-5H-[1]benzopyrano[3,4-c]pyridin-5-one] | 5.1 | 
21 | COc1cc2oc(=O)c3c(c2cc1OC)CCN(CCN1CC2CCC(CC2)C1)C3.Cl.Cl [R1=MeO, R2=MeO, R3=H, X=drawing 10, 3-[2-(3-Azabicyclo[3.2.2]non-3-yl)ethyl]-1,2,3,4-tetrahydro-8,9-dimethoxy-5H-[1]benzopyrano[3,4-c]pyridin-5-one dihydrochloride] |  | Active
22 | COc1cc2oc(=O)c3c(c2cc1OC)CCN(CCN1CC2CCC1CC2)C3 [R1=MeO, R2=MeO, R3=H, X=drawing 11, 3-[2-(2-Azabicyclo[2.2.2]oct-2-yl)ethyl]-1,2,3,4-tetrahydro-8,9-dimethoxy-5H-[1]benzopyrano[3,4-c]pyridine-5-one] | 7.6 | 
23 | COc1cc2oc(=O)c3c(c2cc1OC)CCN(CCN1CC2CCCC(C2)C1)C3 [R1=MeO, R2=MeO, R3=H, X=drawing 12, 3-[2-(3-Azabicyclo[3.3.1]non-3-yl)ethyl]-1,2,3,4-tetrahydro-8,9-dimethoxy-5H-[1]benzopyrano[3,4-c]pyridin-5-one] | 6.6 | 
24 | Cc1cc2oc(=O)c3c(c2cc1N)CCN(CCN1CC2CCC(CC2)C1)C3 [R1=NH2, R2=Me, R3=H, X=drawing 10, 9-Amino-3-[2-(3-azabicyclo[3.2.2]non-3-yl)ethyl]-1,2,3,4-tetrahydro-8-methyl-5H-[1]benzopyrano[3,4-c]pyridin-5-one] | 1.9 | 
25 | CC(=O)Nc1cc2c3c(c(=O)oc2cc1C)CN(CCN1CC2CCC(CC2)C1)CC3 [R1=NHCOCH3, R2=Me, R3=H, X=drawing 10, N-{3-[2-(3-Azabicyclo[3.2.2]non-3-yl)ethyl]-1,2,3,4-tetrahydro-8-methyl-5-oxo-2H-[1]benzopyrano[3,4-c]pyridin-9-yl}-acetamide] |  | Active
26 | Cc1cc2oc(=O)c3c(c2cc1NC(=O)c1ccccc1)CCN(CCN1CC2CCC(CC2)C1)C3 [R1=NHCOPh, R2=Me, R3=H, X=drawing 10, N-{3-[2-(3-Azabicyclo[3.2.2]non-3-yl)ethyl]-1,3,4,5-tetrahydro-8-methyl-5-oxo-2H-[1]benzopyrano[3,4-c]pyridin-9-yl}-benzamide] | 3.8 | 
27 | Cc1cc2oc(=O)c3c(c2cc1[N+](=O)[O-])CCN(CCN1CC2CCC(CC2)C1)C3 [R1=NO2, R2=Me, R3=H, X=drawing 10, 3-[2-(3-Azabicyclo[3.2.2]non-3-yl)ethyl]-1,2,3,4-tetrahydro-8-methyl-9-nitro-5H-[1]benzopyrano[3,4-c]pyridin-5-one] | 1.9 | 
28 | Br.Br.O=c1oc2cc(O)c(O)cc2c2c1CN(CCN1CC3CCC(CC3)C1)CC2 [R1=OH, R2=OH, R3=H, X=drawing 10, 3-[2-(3-Azabicyclo[3.2.2]non-3-yl)ethyl]-1,2,3,4-tetrahydro-8,9-dihydroxy-5H-[1]benzopyrano[3,4-c]pyridin-5-one dihydrobromide] | 2.1 | 
